{"source": "patent US12303591B2", "about": "“Tumescent infiltration drug delivery of high subcutaneous drug concentrations with prolonged local and systemic effects and minimal local or systemic toxicity” (priority 2015, dated 2025)", "key": {"[1]": {"assay": "Safety of tumescent drug delivery: subcutaneous infiltration of tumescent acyclovir and gentamicin", "type": "in vivo, human"}, "[2]": {"system": "Herpes zoster", "details": "without repeat dosing"}, "[3]": {"assay": "Adverse effects / tissue toxicity after subcutaneous tumescent infiltration (TAD trial)", "source_text": "At the time when each sample of TISF was obtained, patients were examined and questioned about signs and symptoms of subcutaneous tissue toxicity including unusual soreness, tenderness, discoloration, swelling at sites of subcutaneous tumescent infiltration. […] One week after TAD patients were questioned by telephone about any signs and symptoms of subcutaneous tissue toxicity at the sites of TAD."}, "[4]": {"details": "8 of 10 obese subjects and 3 of 10 normal controls; cited from earlier work"}, "[5]": {"assay": "Phase I pharmacokinetic clinical trial: TAD vs IVAD of cefazolin and metronidazole (TISF and serum)", "details": "for AUC / Cmax: human, in vivo"}, "[6]": {"system": "Staphyloccus aureus (MRSA) ATCC 33592", "assay": "Minimum Bactericidal Concentration (MBC) vs MRSA", "type": "cell-based, Staphylococcus aureus", "source_text": "Determinations of MBC followed the method described in “Report on the Working Party on Antibiotic Sensitivity Testing of the British Society of Antimicrobial Chemotherapy: A Guide to Sensitivity Testing.”"}, "[7]": {"system": "platelet function", "assay": "Bleeding time and bleeding area before and after tumescent lidocaine exposure", "type": "in vivo, human", "experimental": "The skin of the left and right thigh of a subject is cleaned and allowed to dry. […] Simultaneous 4 mm deep puncture wounds are made to the same area of the left and right thighs with disposable lancets. The puncture sites are blotted with filter paper every 30 seconds, until bleeding stops and the bleeding time for each thigh is recorded. The bleeding times of the left and right thigh are compared to determine if administration of TLAnti increases bleeding time. Normal bleeding time measured by the Duke method is 1 to 3 minutes.\nIn a preliminary experiment, bleeding time and bleeding area were measured in a patient before and after tumescent lidocaine exposure. […] In contrast, there was a 40% increase in Average Bleeding Area (BA). Bleeding Area (BA) was a more sensitive and a more specific test for platelet function compared to Bleeding Time (BT). […] In other words, TAD may reduce the risk of both post-operative surgical site infection and post-operative thromboembolism."}, "[8]": {"details": "28 mg/kg of tumescent lidocaine"}, "[9]": {"system": "platelet aggregation", "details": "cited from earlier work"}, "[10]": {"details": "IV Lidocaine; neuropathic pain; cited from earlier work"}, "[11]": {"details": "routine injection; cited from earlier work"}, "[12]": {"system": "Staphyloccus aureus (MRSA) ATCC 33592", "assay": "Minimum Inhibitory Concentration (MIC) vs MRSA", "details": "Staphylococcus aureus"}, "[13]": {"details": "human, in vivo"}, "[14]": {"details": "IVAD 500 mg; abdominal wall surgery; cited from earlier work"}, "[15]": {"assay": "clinical", "details": "human, in vivo"}, "[16]": {"details": "dilute drug after subcutaneous tumescent infiltration"}, "[17]": {"details": "20 ml subcutaneous TI, 6 of 6 subjects, 6 days"}, "[18]": {"details": "after vs before tumescent lidocaine exposure"}, "[19]": {"details": "post-op tumescent lidocaine exposure, single tests T3, T4, Patient 1"}}, "note": "Values joined by “and” are separate entries in the source; they are usually repeats but may differ in a detail not shown here. Identical values can stand only once. Like-named read-outs stand apart in the source and are kept apart here.", "data": [{"molecule": "Nc1nc2c(ncn2COCCO)c(=O)[nH]1", "note": "[Acyclovir]", "values": [{"measurement": "clinically significant adverse effects", "setting": "[1]; in vivo, sc", "value": "without any clinically significant adverse effects"}, {"measurement": "ecchymosis", "setting": "[1]; in vivo, sc", "value": "no ecchymosis"}, {"measurement": "local tenderness upon palpation", "setting": "[1]; in vivo, sc", "value": "no local tenderness"}, {"measurement": "duration of elimination of acute zoster pain", "setting": "[2]", "value": "at least 12 hours"}]}, {"molecule": "CNC[C@H](O)c1ccc(O)c(O)c1", "note": "[epinephrine]", "values": [{"measurement": "adverse local or systemic effects", "setting": "[3]; [16]", "value": "no adverse local or systemic effects"}]}, {"molecule": "CO[C@@]1(NC(=O)Cc2cccs2)C(=O)N2C(C(=O)O)=C(COC(N)=O)CS[C@@H]21", "note": "[cefoxitin]", "values": [{"measurement": "subcutaneous bioavailability (AUC) of free drug after IVAD, times less than serum bioavailability", "setting": "[4]", "value": 10, "unit": "times"}, {"measurement": "subcutaneous bioavailability by IVAD, times less than by TAD", "setting": "[5]; 10×16, for a significant proportion of patients", "value": "approximately 160 times"}]}, {"molecule": "Gentamicin", "values": [{"measurement": "ecchymosis", "setting": "[1]; [17]", "value": "no ecchymosis"}, {"measurement": "local tenderness upon palpation", "setting": "[1]; [17]", "value": "no local tenderness"}, {"measurement": "stinging upon injection", "setting": "[1]; 20 ml subcutaneous TI, acyclovir 1 gm in 1130 ml, gentamicin 80 mg in 1110 ml tumescent lidocaine solution, 6 of 6 subjects", "value": "no stinging"}, {"measurement": "clinically significant adverse effects", "setting": "[1]; injected subcutaneously in a dilute tumescent solution", "value": "without any clinically significant adverse effects"}]}, {"molecule": "CCN(CC)CC(=O)Nc1c(C)cccc1C", "note": "[Lidocaine]", "values": [{"measurement": "MRSA survival at test concentration (MBC test)", "setting": "[6]; Day 1, 1,000 mg/L, MRSA Inoculum 4.7 × 10^5 CFU/ml", "value": "+"}, {"measurement": "MRSA survival at test concentration (MBC test)", "setting": "[6]; Day 2, 1,000 mg/L, MRSA Inoculum 4.4 × 10^5 CFU/ml", "value": "+"}, {"measurement": "MRSA survival at test concentration (MBC test)", "setting": "[6]; Day 2, 5,000 mg/L, MRSA Inoculum 4.4 × 10^5 CFU/ml", "value": "+"}, {"measurement": "MRSA survival at test concentration (MBC test)", "setting": "[6]; Day 2, 10,000 mg/L, MRSA Inoculum 4.4 × 10^5 CFU/ml", "value": 0}, {"measurement": "MBC", "setting": "[6]; Staphylococcus aureus, 48 h, read-out: MBC end point", "value": 10000, "unit": "µg/mL"}, {"measurement": "Average Bleeding Area (BA)", "setting": "[7]; after tumescent lidocaine exposure (Control BA = 541)", "value": "Lidocaine BA = 759"}, {"measurement": "Average Bleeding Time (BT)", "setting": "[7]; after tumescent lidocaine exposure (Control BT = 6)", "value": "Lidocaine BT = 5.75"}, {"measurement": "change in Average Bleeding Time (BT)", "setting": "[7]; [18]", "value": "essentially no change"}, {"measurement": "increase in Average Bleeding Area (BA)", "setting": "[7]; [18]", "value": 40, "unit": "%"}, {"measurement": "Bleeding Area BA", "setting": "[7]; [19]", "value": "791.81 and 726.03"}, {"measurement": "Bleeding Time BT × 2", "setting": "[7]; [19]", "value": "10 and 13"}, {"measurement": "adverse local or systemic effects", "setting": "[3]; [16]", "value": "no adverse local or systemic effects"}, {"measurement": "duration of therapeutic serum lidocaine concentrations", "setting": "[8]", "value": "≥ 12", "unit": "h"}, {"measurement": "concentrations that consistently inhibit in-vitro platelet aggregation", "setting": "[9]; aggregation induced by ADP, epinephrine and collagen", "value": "≥ 0.5", "unit": "mg/mL"}, {"measurement": "systemic concentrations with no effect on platelet aggregation", "setting": "[9]; safe systemic concentrations", "value": "≤ 6", "unit": "micrograms/ml"}, {"measurement": "mean serum lidocaine concentration at complete analgesia", "setting": "[10]", "value": "3.79 ± 1.00", "unit": "µg/mL"}, {"measurement": "duration of routine local anesthesia", "setting": "[11]", "value": "~2", "unit": "h"}, {"measurement": "MIC", "setting": "[12]", "value": "~5000", "unit": "µg/mL"}, {"measurement": "MIC", "setting": "[12]; read-out: MIC end point", "value": 5000, "unit": "µg/mL"}]}, {"molecule": "Cc1ncc([N+](=O)[O-])n1CCO", "note": "[Metronidazole]", "values": [{"measurement": "adverse local or systemic effects", "setting": "[3]; in vivo, sc", "value": "no adverse local or systemic effects"}, {"measurement": "mean Tmax (time of Cmax in serum)", "setting": "[13]", "value": 11}, {"measurement": "concentration in subcutaneous fat", "setting": "[14]", "value": "600 to 1700", "unit": "ng/mL"}, {"measurement": "Tmax", "setting": "[15]", "value": "10 to 12", "unit": "h"}, {"measurement": "AUC∞ in TISF after TAD, times greater than in serum after IVAD", "setting": "[5]; 500 mg TAD vs 500 mg IVAD", "value": 8.1, "unit": "times"}, {"measurement": "AUC", "setting": "[5]; 500 mg, Table 15B, Abdomen, TISF, TAD, 413 mg/L, with cefazolin", "value": 1030, "unit": "µg·h/mL"}, {"measurement": "AUC", "setting": "[5]; 500 mg, Table 15B, Abdomen, serum, IVAD, with cefazolin", "value": 127, "unit": "µg·h/mL"}, {"measurement": "AUC", "setting": "[5]; 500 mg, Table 15B, Abdomen, serum, TAD, 413 mg/L, with cefazolin", "value": 81, "unit": "µg·h/mL"}, {"measurement": "Cmax", "setting": "[5]; 500 mg, Cmax in tumescent interstitial fluid, TAD solution containing 500 mg of metronidazole", "value": 370000, "unit": "ng/mL"}, {"measurement": "Cmax", "setting": "[5]; 500 mg, Cmax, Table 15B, Abdomen, TISF, TAD, 413 mg/L, with cefazolin", "value": 160000, "unit": "ng/mL"}, {"measurement": "Cmax", "setting": "[5]; 500 mg, Cmax, Table 15B, Abdomen, serum, IVAD, with cefazolin", "value": 14000, "unit": "ng/mL"}, {"measurement": "Cmax", "setting": "[5]; 500 mg, Cmax, Table 15B, Abdomen, serum, TAD, 413 mg/L, with cefazolin", "value": 4800, "unit": "ng/mL"}, {"measurement": "AUC", "setting": "[5]; 600 mg, Table 16B, Abdomen, serum, TAD, 172 mg/L, TAD dose 600 mg", "value": 81, "unit": "µg·h/mL"}, {"measurement": "Cmax", "setting": "[5]; 600 mg, Cmax, Table 16B, Abdomen, TISF, TAD, 172 mg/L, TAD dose 600 mg", "value": 160000, "unit": "ng/mL"}, {"measurement": "Cmax", "setting": "[5]; 600 mg, Cmax, Table 16B, Abdomen, serum, IVAD dose 600 mg", "value": 14000, "unit": "ng/mL"}, {"measurement": "Cmax", "setting": "[5]; 600 mg, Cmax, Table 16B, Abdomen, serum, TAD, 172 mg/L, TAD dose 600 mg", "value": 4800, "unit": "ng/mL"}, {"measurement": "AUC", "setting": "[5]; Table 16B, Abdomen, TISF, TAD + IVAD, 200 mg/L, TAD dose 400 mg, IVAD dose 200 mg", "value": 1130, "unit": "µg·h/mL"}, {"measurement": "AUC", "setting": "[5]; Table 16B, Abdomen, serum, TAD + IVAD, 200 mg/L, TAD dose 400 mg, IVAD dose 200 mg", "value": 117, "unit": "µg·h/mL"}, {"measurement": "Cmax", "setting": "[5]; Cmax, Table 16B, Abdomen, TISF, TAD + IVAD, 200 mg/L, TAD dose 400 mg, IVAD dose 200 mg", "value": 150000, "unit": "ng/mL"}, {"measurement": "Cmax", "setting": "[5]; Cmax, Table 16B, Abdomen, serum, TAD + IVAD, 200 mg/L, TAD dose 400 mg, IVAD dose 200 mg", "value": 5900, "unit": "ng/mL"}]}, {"molecule": "Cc1nnc(SCC2=C(C(=O)O)N3C(=O)[C@@H](NC(=O)Cn4cnnn4)[C@H]3SC2)s1", "note": "[Cefazolin]", "values": [{"measurement": "adverse local or systemic effects", "setting": "[3]; in vivo, sc", "value": "no adverse local or systemic effects"}, {"measurement": "Tmax", "setting": "[15]", "value": "8 to 12", "unit": "h"}, {"measurement": "MIC", "setting": "[12]", "value": "125 to 250", "unit": "µg/mL"}]}]}
